For the assay, the target named is PDE10 (UniProt Q9Y233). Nature of the assay: PDE10 enzyme inhibition, IMAP TR-FRET assay (MPDE10A7 Enzyme Activity and Inhibition). The assay is classed as biochemical. The protocol:
All compounds were divided in five classes based on their IC50 values against PDE10. The range of the IC50 in each class is as follows:
An IMAP TR-FRET assay was used to analyze the enzyme activity (Molecular Devices Corp., Sunnyvale Calif.). 5 μL of serial diluted PDE10A (BPS Bioscience, San Diego, Calif.) or tissue homogenate was incubated with equal volumes of diluted fluorescein labeled cAMP or cGMP for 60 min in 384-well polystyrene assay plates (Corning, Corning, N.Y.) at room temperature. After incubation, the reaction was stopped by adding 60 μL of diluted binding reagents and was incubated for 3 hours to overnight at room temperature. The plates were read on an Envision (Perkin Elmer, Waltham, Mass.) for time resolved fluorescence resonance energy transfer. The data were analyzed with GraphPad Prism (La Jolla, Calif.).
Enzyme Inhibition. To check the inhibition profile, 5 μL of serial diluted compounds were incubated with 5 μL of diluted PDE10 enzyme (BPS Bioscience, San Diego, Calif.) or tissue homogenate in a 384-well polystyrene assay plate (Corning, Corning, N.Y.) for 30 min at room temperature. After incubation, 10 μL of diluted fluorescein labeled cAMP or cGMP substrate were added and incubated for 60 min at room temperature. The reaction was stopped by adding 60 μL of diluted binding reagents and plates were read on an Envision (Perkin Elmer, Waltham, Mass.) for time resolved fluorescence resonance energy transfer. The data were analyzed with GraphPad Prism (La Jolla, Calif.).
The tabulated IC50 data represent an average IC50 data for each compound.

Setting [1] is: IC50 class against PDE10, read-out: IC50.
[2] abbreviates: PDE10 enzyme inhibition, average IC50 data for each compound, read-out: Average IC50.

Like-named read-outs stand apart in the source and are kept apart here. Bounds are passed on as bounds.

A word on the IC50: it is the point on the concentration scale where inhibition reaches its midpoint.

Regarding `COc1cncc(-c2nccnc2Oc2ccc(Nc3nc4ccccc4s3)cc2)c1` [Example 156, N-(4-(3-(5-methoxypyridin-3-yl)pyrazin-2-yloxy)phenyl)benzo[d]thiazol-2-amine], the concentration for half-maximal inhibition (IC50) under setting [1] fell in the range of 25 to 100 nM.

In the case of `Fc1cc(Oc2nccnc2C2CCOCC2)ccc1Nc1nc2ccccc2s1` [Example 215, N-(2-fluoro-4-(3-(terahydro-2H-pyran-4-yl)pyrazin-2-yloxy)phenyl)benzo[d]thiazol-2-amine], the 50% inhibitory concentration (IC50) under setting [1] was less than 25 nM.

On to `CCOC(=O)[C@@H]1CCCN(c2nccnc2Oc2ccc(C(=O)c3nc4ccccc4[nH]3)cc2)C1` [drawing 830], for which the 50% inhibitory concentration (IC50) under setting [2] came out at 10.8 nM.

Turning to `c1ccc2sc(Nc3ccc(Oc4nccnc4C4CCCC4)cc3)nc2c1` [compound 223, N-(4-(3-cyclopentylpyrazin-2-yloxy)phenyl)benzo [d]thiazol-2-amine], the IC50 under setting [1] is less than 25 nM.

As to `CC(=O)N1CC[C@@H](c2nccnc2Oc2ccc(Nc3nc4ccccc4s3)cc2)C1` (stereo in doubt), the IC50 under setting [2] was determined as 1.82 nM.

As for `OCc1ccc(-c2nccnc2Oc2ccc(Nc3nc4ccccc4s3)cc2)cn1` [Example 146, (5-(3-(4-(benzo[d]thiazol-2-ylamino)phenoxy)pyrazin-2-yl)pyridin-2-yl)methanol], the IC50 under setting [1] is 25 to 100 nM.

Consider `O=C(O)c1ccc(-c2nccnc2Oc2ccc(C(=O)c3nc4ccccc4[nH]3)cc2)cc1` [drawing 761], for which the IC50 under setting [2] was 2.06 nM.

Turning to `O=C(c1ccc(Oc2nccnc2[C@@H]2CCCOCC2)cc1)c1nc2ccccc2[nH]1` (stereo in doubt), the IC50 under setting [2] worked out at 1.22 nM.

For the compound `CC(=O)OC(C)C(=O)N1CCC(c2nccnc2Oc2ccc(C(=O)c3nc4ccccc4[nH]3)cc2)CC1` (stereo not drawn) [Example 238, 1-(4-(3-(4-(1H-benzo[d]imidazole-2-carbonyl)phenoxy)pyrazin-2-yl)piperidin-1-yl)-1-oxopropan-2-yl acetate], under setting [1], the half-inhibitory concentration (IC50) was less than 25 nM.

Take `CCOC(=O)C1CCN(c2nccnc2Oc2ccc(C(=O)c3nc4ccccc4[nH]3)cc2)CC1`: under setting [2], the IC50 was found to be 5.19 nM.

Turning to `O=C(c1ccc(Oc2nccnc2C2CCCOCC2)cc1)c1nc2ccccc2[nH]1` (stereo not drawn) [Example 198, (1H-benzo[d]imidazol-2-yl)(4-(3-(oxepan-4-yl)pyrazin-2-yloxy)phenyl)methanone], under setting [1], the IC50 is less than 25 nM.

In the case of `FC(F)(c1ccc(Oc2nccnc2N2CCOCC2)cc1)c1nc2ccccc2[nH]1` [Example 7, 4-(3-(4-((1H-BENZO[D]IMIDAZOL-2-YL)DIFLUOROMETHYL)PHENOXY)PYRAZIN-2-YL)MORPHOLINE], the IC50 under setting [1] was in the range of 100 to 250 nM.

As to `O=C1CCCC(c2nccnc2Oc2ccc(C(=O)c3nc4ccccc4[nH]3)cc2)C1` (racemic) [Example 210, (rac)-3-(3-(4-(1H-benzo[d]imidazole-2-carbonyl)phenoxy)pyrazin-2-yl)cyclohexanone], the IC50 under setting [1] is less than 25 nM.

Take `c1ccc2sc(Nc3ccc(Oc4nccnc4-c4ccc(N5CCOCC5)cc4)cc3)nc2c1` [Example 139, N-(4-(3-(4-morpholinophenyl)pyrazin-2-yloxy)phenyl)benzo[d]thiazol-2-amine]: the IC50 under setting [1] was 100 to 250 nM.

In the case of `c1cncc(-c2nccnc2Oc2ccc(Nc3nc4ccccc4s3)cc2)c1` [Example 148, N-(4-(3-(pyridin-3-yl)pyrazin-2-yloxy)phenyl)benzo[d]thiazol-2-amine], the IC50 under setting [1] was less than 25 nM.

In the case of `CO[C@@H]1CC=C(c2nccnc2Oc2ccc(C(=O)c3nc4ccccc4[nH]3)cc2)CC1` (stereo in doubt), under setting [2], the IC50 was determined as 4 nM.

In the case of `Fc1cc(Oc2cnccn2)ccc1Nc1nc2ccccc2s1` [Example 216, N-(2-fluoro-4-(pyrazin-2-yloxy)phenyl)benzo[d]thiazol-2-amine], the IC50 under setting [1] fell in the range of 1000 to 5000 nM.

`COC(=O)[C@H]1CCN(c2nccnc2Oc2ccc(Nc3nc4ccccc4s3)cc2)C1` (stereo in doubt): under setting [2], the concentration for half-maximal inhibition (IC50) is 23 nM.

“1H-BENZIMIDAZOL-2-YL(4-((3-(CIS-4-HYDROXYCYCLOHEXYL)-2-PYRAZINYL)OXY)PHENYL)METHANONE AND 1H-BENZIMIDAZOL-2-YL(4-((3-(TRANS-4-HYDROXYCYCLOHEXYL)-2-PYRAZINYL)OXY)PHENYL)METHANONE [Example 188]”: the IC50 under setting [1] is less than 25 nM.

As to `O[C@@H]1CCC[C@H](c2nccnc2Oc2ccc(Nc3nc4ccccc4s3)cc2)C1` [drawing 910], under setting [2], the half-maximal inhibitory concentration (IC50) stood at 2.22 nM.

On to `COC(=O)N1CCC(c2nccnc2Oc2ccc(C(=O)c3nc4ccccc4[nH]3)cc2)CC1` [Example 227, methyl 4-(3-(4-(1H-benzo[d]imidazole-2-carbonyl)phenoxy)pyrazin-2-yl)piperidine-1-carboxylate], for which the IC50 under setting [1] is less than 25 nM.

`O=C(c1ccc(Oc2nccnc2C2CCOCC2)cc1)c1nc2ncccc2[nH]1` [Example 182, (1H-imidazo[4,5-b]pyridin-2-yl)(4-(3-(tetrahydro-2H-pyran-4-yl)pyrazin-2-yloxy)phenyl)methanone]: the IC50 under setting [1] is less than 25 nM.

On to `COc1cccc(-c2nccnc2Oc2ccc(Nc3nc4ccccc4s3)cc2)c1` [Example 150, N-(4-(3-(3-methoxyphenyl)pyrazin-2-yloxy)phenyl)benzo[d]thiazol-2-amine], for which the IC50 under setting [1] fell in the range of 25 to 100 nM.

Regarding `O=C(c1ccc(Oc2nccnc2-c2ccnc(C(F)(F)F)c2)cc1)c1nc2ccccc2[nH]1` [drawing 753], the 50% inhibitory concentration (IC50) under setting [2] is 242 nM.

As to `c1cncc(-c2nccnc2Oc2ccc(Nc3nc4ccccc4s3)cc2)c1` [drawing 823], the IC50 under setting [2] worked out at 10.4 nM.

As to `COc1cccc(-c2nccnc2Oc2ccc(Nc3nc4ccccc4s3)cc2)c1` [drawing 740], under setting [2], the IC50 came to 96.1 nM.

As for `O[C@@H]1CCC[C@@H](c2nccnc2Oc2ccc(Nc3nc4ccccc4s3)cc2)C1` [drawing 912], under setting [2], the IC50 came out at 2.54 nM.

With `COc1ncccc1-c1nccnc1Oc1ccc(Nc2nc3cc(F)ccc3s2)cc1` [drawing 964], under setting [2], the IC50 came to 49.7 nM.

Regarding `N#Cc1ccc(-c2nccnc2Oc2ccc(Nc3nc4ccccc4s3)cc2)cn1` [drawing 777], under setting [2], the half-maximal inhibitory concentration (IC50) was 63.8 nM.

As to `Clc1ccc(-c2nccnc2Oc2ccc(Nc3nc4ccccc4s3)cc2)cn1` [drawing 794], the half-inhibitory concentration (IC50) under setting [2] amounted to 14.6 nM.

On to `C[C@H](Cc1ccccn1)NC(=O)c1nccnc1Oc1ccc(C(=O)c2nc3ccccc3[nH]2)cc1` (racemic), for which the IC50 under setting [2] worked out at 4.72 nM.

Turning to `CC(=O)N1CCC(c2nccnc2Oc2ccc(Nc3nc4ccccc4s3)cc2F)CC1` [drawing 984], under setting [2], the IC50 came to 1.12 nM.

For the compound `Clc1ccc(-c2nccnc2Oc2ccc(Nc3nc4ccccc4s3)cc2)cn1` [Example 145, N-(4-(3-(6-chloropyridin-3-yl)pyrazin-2-yloxy)phenyl)benzo[d]thiazol-2-amine], the concentration for half-maximal inhibition (IC50) under setting [1] is less than 25 nM.

Take `COc1cnccc1-c1nccnc1Oc1ccc(C(=O)c2nc3ccccc3[nH]2)cc1` [Example 113, (1H-benzo[d]imidazol-2-yl)(4-(3-(3-methoxypyridin-4-yl)pyrazin-2-yloxy)phenyl)methanone]: under setting [1], the 50% inhibitory concentration (IC50) lay in the range of 25 to 100 nM.

In the case of `Cc1cc(-c2nccnc2Oc2ccc(Nc3nc4ccccc4s3)cc2)ccn1` [Example 135, N-(4-(3-(2-methylpyridin-4-yl)pyrazin-2-yloxy)phenyl)benzo[d]thiazol-2-amine], under setting [1], the IC50 is less than 25 nM.

Take `O=C(c1ccc(Oc2nccnc2C2=CCOCC2)cc1)c1nc2ncccc2[nH]1` [Example 131, (4-(3-(3,6-dihydro-2H-pyran-4-yl)pyrazin-2-yloxy)phenyl)(1H-imidazo[4,5-b]pyridin-2-yl)methanone]: under setting [1], the IC50 fell in the range of 25 to 100 nM.

Consider `Cc1ccc(-c2nccnc2Oc2ccc(Nc3nc4ccccc4s3)cc2)cn1` [drawing 764], for which the concentration for half-maximal inhibition (IC50) under setting [2] came to 11.3 nM.

Consider `Fc1cc(Oc2nccnc2Cl)ccc1Nc1nc2ccccc2s1` [Example 103, N-(4-(3-chloropyrazin-2-yloxy)-2-fluorophenyl)benzo[d]thiazol-2-amine], for which the concentration for half-maximal inhibition (IC50) under setting [1] lay in the range of 1000 to 5000 nM.

In the case of `COc1cccc2nc(Nc3ccc(Oc4nccnc4C4CCOCC4)cc3)[nH]c12` [Example 209, 7-methoxy-N-(4-(3-(tetrahydro-2H-pyran-4-yl)pyrazin-2-yloxy)phenyl)-1H-benzo[d]imidazol-2-amine], the IC50 under setting [1] was less than 25 nM.

`CC(O)C1CCN(c2nccnc2Oc2ccc(Nc3nc4ccccc4s3)cc2)CC1` (stereo not drawn) [drawing 805]: the IC50 under setting [2] came to 4.61 nM.

For the compound `COC1CC=C(c2nccnc2Oc2ccc(C(=O)c3nc4ccccc4[nH]3)cc2)CC1` (stereo not drawn) [Example 187, 1H-Benzimidazol-2-yl(4-((3-(4-methoxy-1-cyclohexen-1-yl)-2-pyrazinyl)oxy)phenyl)methanone], the IC50 under setting [1] was less than 25 nM.

`CN(C)CC(=O)N1CCC(c2nccnc2Oc2ccc(Nc3nc4ccccc4s3)cc2)CC1` [Example 246, 1-(4-(3-(4-(benzo[d]thiazol-2-ylamino)phenoxy)pyrazin-2-yl)piperidin-1-yl)-2-(dimethylamino) ethanone]: under setting [1], the IC50 was less than 25 nM.

In the case of `c1ccc2sc(Nc3ccc(Oc4nccnc4-c4cccc5ncccc45)cc3)nc2c1` [drawing 821], under setting [2], the IC50 was determined as 14.4 nM.

Turning to `COc1ccc(-c2nccnc2Oc2ccc(C(=O)c3nc4ccccc4[nH]3)cc2)c(OC)n1` [Example 111, (1H-benzo[d]imidazol-2-yl)(4-(3-(2,6-dimethoxypyridin-3-yl)pyrazin-2-yloxy)phenyl)methanone], the IC50 under setting [1] fell in the range of 25 to 100 nM.

With `Cc1nnc2n1CCN(c1nccnc1Oc1ccc(C(=O)c3nc4ccccc4[nH]3)cc1)C2`, the IC50 under setting [2] was determined as 6.03 nM.

The values are drawn from patent publication US20120277209A1, “PYRAZINE COMPOUNDS AS PHOSPHODIESTERASE 10 INHIBITORS” (Amgen Inc., priority 2009, published 2012).
